In patent publication US20250059188A1, “ARYLSULPHONAMIDE COMPOUNDS” (Anaxis Pharma Pty Ltd, priority 2021, published 2025):
pIC50, pKd: −log10 of the molar value.

Key:
[1] = tested on: Immortalised Mouse Dermal Fibroblasts (MDFs); test: Inhibition of TSI induced necroptosis in mouse dermal fibroblasts (CellTitre-Glo); settings: Mus musculus, Fibroblast, 3 h, MDF cells, TSI cocktail (TNF, Smac mimetic, IDN-6556), read-out: Inhibition of TSI-induced necroptosis (IC50 cell-based assay) in MDF
Procedure, shortened: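 Immortalised MDFs (2200 cells/well, DMEM + 7.4% FBS) pretreated 30 min with compound (36 μM top, 1:3, 10 points, 0.3% DMSO), then 3 h with TNF 100 ng/ml, Smac mimetic 500 nM and IDN-6556 10 μM at 37 °C. Viability by CellTiter-Glo luminescence; IC50 from 4-parameter logistic fit.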

human RIPK3 = human RIPK3 (Homo sapiens (Human), UniProt Q9Y572); test: KINOMEscan binding assay, human RIPK3; settings: equilibrium dissociation constant
Sequence of human RIPK3 (Q9Y572 whole entry): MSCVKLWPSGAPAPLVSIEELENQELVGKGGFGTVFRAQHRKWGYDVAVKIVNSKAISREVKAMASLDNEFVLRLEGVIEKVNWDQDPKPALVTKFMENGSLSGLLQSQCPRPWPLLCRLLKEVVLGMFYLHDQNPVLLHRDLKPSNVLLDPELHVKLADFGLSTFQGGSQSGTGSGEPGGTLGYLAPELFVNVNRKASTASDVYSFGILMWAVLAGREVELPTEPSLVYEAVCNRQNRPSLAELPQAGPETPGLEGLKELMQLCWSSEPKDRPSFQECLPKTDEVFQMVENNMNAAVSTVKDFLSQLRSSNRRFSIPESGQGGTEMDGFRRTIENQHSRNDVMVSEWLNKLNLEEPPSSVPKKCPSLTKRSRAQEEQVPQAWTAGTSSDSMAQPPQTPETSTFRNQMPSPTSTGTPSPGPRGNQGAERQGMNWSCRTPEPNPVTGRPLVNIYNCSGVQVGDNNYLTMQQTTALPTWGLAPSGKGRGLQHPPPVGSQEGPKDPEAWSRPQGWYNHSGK
Procedure, shortened: (§1)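 In this assay, compounds displace DNA- or phage-tagged kinase from an immobilized ligand, and eluted kinase is quantified by qPCR.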

human RIPK1 = human RIPK1 (Homo sapiens (Human), UniProt Q13546); test: KINOMEscan binding assay, human RIPK1; settings: equilibrium dissociation constant
Sequence of human RIPK1 (Q13546 whole entry): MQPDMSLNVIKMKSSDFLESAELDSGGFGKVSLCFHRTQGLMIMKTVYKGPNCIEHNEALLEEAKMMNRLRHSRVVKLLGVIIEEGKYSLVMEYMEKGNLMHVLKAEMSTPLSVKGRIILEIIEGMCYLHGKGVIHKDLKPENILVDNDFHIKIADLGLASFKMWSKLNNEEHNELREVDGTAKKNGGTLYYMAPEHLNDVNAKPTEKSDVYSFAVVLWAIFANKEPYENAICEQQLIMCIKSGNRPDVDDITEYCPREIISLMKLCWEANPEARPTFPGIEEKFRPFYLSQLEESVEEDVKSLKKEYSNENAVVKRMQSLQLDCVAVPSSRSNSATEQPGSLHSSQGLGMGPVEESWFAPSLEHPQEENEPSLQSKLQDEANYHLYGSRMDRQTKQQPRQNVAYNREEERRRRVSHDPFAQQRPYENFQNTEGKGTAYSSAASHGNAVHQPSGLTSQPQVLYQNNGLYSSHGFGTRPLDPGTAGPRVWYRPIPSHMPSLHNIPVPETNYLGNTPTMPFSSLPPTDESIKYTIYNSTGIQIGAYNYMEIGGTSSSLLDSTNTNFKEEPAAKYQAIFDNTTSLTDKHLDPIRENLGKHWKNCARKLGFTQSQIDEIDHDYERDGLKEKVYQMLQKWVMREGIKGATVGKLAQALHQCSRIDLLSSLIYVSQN
Procedure, shortened: as §1

human MLKL (full length) = human MLKL (full length) (Homo sapiens (Human), UniProt Q8NB16); test: KINOMEscan binding assay, human MLKL (full length); settings: equilibrium dissociation constant
Sequence of human MLKL (full length) (Q8NB16 whole entry): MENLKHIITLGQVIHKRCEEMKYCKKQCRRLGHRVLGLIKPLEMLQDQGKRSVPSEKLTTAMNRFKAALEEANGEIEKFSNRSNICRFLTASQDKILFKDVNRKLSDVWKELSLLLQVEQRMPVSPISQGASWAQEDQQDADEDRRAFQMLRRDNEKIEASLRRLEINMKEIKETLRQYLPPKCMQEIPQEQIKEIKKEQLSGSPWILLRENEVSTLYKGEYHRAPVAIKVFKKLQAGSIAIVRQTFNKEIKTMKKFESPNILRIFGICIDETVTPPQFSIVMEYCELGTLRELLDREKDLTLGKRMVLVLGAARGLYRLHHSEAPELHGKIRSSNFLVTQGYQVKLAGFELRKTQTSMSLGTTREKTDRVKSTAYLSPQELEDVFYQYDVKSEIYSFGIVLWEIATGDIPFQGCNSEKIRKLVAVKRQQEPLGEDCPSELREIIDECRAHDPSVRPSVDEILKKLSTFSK
Procedure, shortened: as §1

SMILES	pKd (human RIPK3)	pKd (human RIPK1)	pKd (human MLKL (full length))	pIC50 [1]
C[C@H](Oc1cc(-c2nn(C)c3c(-c4cnn(C5CCC(F)(F)CC5)c4)cnc(N)c23)ccc1NS(=O)(=O)C(F)F)c1ccc(F)cc1 [Compound 146, (S)-N-(4-(4-amino-7-(1-(4,4-difluorocyclohexyl)-1H-pyrazol-4-yl)-1-methyl-1H-pyrazolo[4,3-c]pyridin-3-yl)-2-(1-(4-fluorophenyl)ethoxy)phenyl)-1,1-difluoromethanesulfonamide]	< 5.00	< 5.00	7.00 to 9.00	5.00 to 6.00
CC1C(n2cc(-c3cnc(N)c4c(-c5ccc(NS(=O)(=O)C(F)F)c(O[C@@H](C)c6ccc(F)cc6)c5)nn(C)c34)cn2)CN1C (stereo partly drawn) [Compound 147, N-(4-(4-amino-7-(1-(1,2-dimethylazetidin-3-yl)-1H-pyrazol-4-yl)-1-methyl-1H-pyrazolo[4,3-c]pyridin-3-yl)-2-((S)-1-(4-fluorophenyl)ethoxy)phenyl)-1,1-difluoromethanesulfonamide]	< 5.00	< 5.00	7.00 to 9.00	6.00 to 7.00
C[C@H](Oc1cc(-c2nn(C)c3c(-c4cnn(C5CCN(C)C(C(F)(F)F)C5)c4)cnc(N)c23)ccc1NS(=O)(=O)C(F)F)c1ccc(F)cc1 (stereo partly drawn) [Compound 148, N-(4-(4-amino-1-methyl-7-(1-(1-methyl-2-(trifluoromethyl)piperidin-4-yl)-1H-pyrazol-4-yl)-1H-pyrazolo[4,3-c]pyridin-3-yl)-2-((S)-1-(4-fluorophenyl)ethoxy)phenyl)-1,1-difluoromethanesulfonamide]	< 5.00	< 5.00	7.00 to 9.00	6.00 to 7.00
C[C@H](Oc1cc(-c2nn(C)c3c(-c4cnn(C5CC6CCC(C5)N6CC(F)(F)F)c4)cnc(N)c23)ccc1NS(=O)(=O)C(F)F)c1ccc(F)cc1 (stereo partly drawn) [Compound 153, N-(4-(4-amino-1-methyl-7-(1-(8-(2,2,2-trifluoroethyl)-8-azabicyclo[3.2.1]octan-3-yl)-1H-pyrazol-4-yl)-1H-pyrazolo[4,3-c]pyridin-3-yl)-2-((S)-1-(4-fluorophenyl)ethoxy)phenyl)-1,1-difluoromethanesulfonamide]	< 5.00	< 5.00	7.00 to 9.00	6.00 to 7.00
Cc1c(-c2cnc(N)c3c(-c4ccc(NS(=O)(=O)C(F)F)c(O[C@@H](C)c5ccc(F)cc5)c4)nn(C)c23)cnn1C1CCN(C)C(C)(C)C1 (stereo partly drawn) [Compound 157, N-(4-(4-amino-1-methyl-7-(5-methyl-1-(1,2,2-trimethylpiperidin-4-yl)-1H-pyrazol-4-yl)-1H-pyrazolo[4,3-c]pyridin-3-yl)-2-((S)-1-(4-fluorophenyl)ethoxy)phenyl)-1,1-difluoromethanesulfonamide]	< 5.00	< 5.00	7.00 to 9.00	5.00 to 6.00
C[C@H](Oc1cc(-c2nn(C)c3c(-c4cnn(C5CCN(C)C(C)(C)C5)c4)cnc(N)c23)ccc1NS(=O)(=O)C(F)F)c1ccc(Cl)cc1 (stereo partly drawn) [Compound 159, N-(4-(4-amino-1-methyl-7-(1-(1,2,2-trimethylpiperidin-4-yl)-1H-pyrazol-4-yl)-1H-pyrazolo[4,3-c]pyridin-3-yl)-2-((S)-1-(4-chlorophenyl)ethoxy)phenyl)-1,1-difluoromethanesulfonamide]	< 5.00	< 5.00	> 9.00	> 7.00
C[C@H](Oc1cc(-c2nn(C)c3c(-c4cnn(C5CC(C)(C)N(C)C(C)(C)C5)c4)cnc(N)c23)ccc1NS(=O)(=O)C(F)F)c1ccc(F)cc1 [Compound 162, (S)-N-(4-(4-amino-1-methyl-7-(1-(1,2,2,6,6-pentamethylpiperidin-4-yl)-1H-pyrazol-4-yl)-1H-pyrazolo[4,3-c]pyridin-3-yl)-2-(1-(4-fluorophenyl)ethoxy)phenyl)-1,1-difluoromethanesulfonamide]	< 5.00	< 5.00	> 9.00	> 7.00

The next lines start with results.

pKd (human RIPK3)	pKd (human RIPK1)	pKd (human MLKL (full length))	SMILES	pIC50 [1]
< 5.00	< 5.00	> 9.00	C[C@H](Oc1cc(-c2nn(C)c3c(-c4cnn(C5C[C@H]6CNC[C@H]6C5)c4)cnc(N)c23)ccc1NS(=O)(=O)C(F)F)c1ccc(F)cc1 (stereo partly drawn) [Compound 163, N-(4-(4-amino-1-methyl-7-(1-((3aR,6aS)-octahydrocyclopenta[c]pyrrol-5-yl)-1H-pyrazol-4-yl)-1H-pyrazolo[4,3-c]pyridin-3-yl)-2-((S)-1-(4-fluorophenyl)ethoxy)phenyl)-1,1-difluoromethanesulfonamide]	5.00 to 6.00
< 5.00	< 5.00	> 9.00	C[C@H](Oc1cc(-c2nn(C)c3c(-c4cnn(C5C[C@@H]6CN(C)C[C@@H]6C5)c4)cnc(N)c23)ccc1NS(=O)(=O)C(F)F)c1ccc(F)cc1 (stereo partly drawn) [Compound 164, N-(4-(4-amino-1-methyl-7-(1-((3aR,6aS)-2-methyloctahydrocyclopenta[c]pyrrol-5-yl)-1H-pyrazol-4-yl)-1H-pyrazolo[4,3-c]pyridin-3-yl)-2-((S)-1-(4-fluorophenyl)ethoxy)phenyl)-1,1-difluoromethanesulfonamide]	> 7.00
< 5.00	< 5.00	7.00 to 9.00	C[C@H](Oc1cc(-c2nn(C)c3c(-c4ccc5c(cnn5C)c4)cnc(N)c23)ccc1NS(=O)(=O)C(F)F)c1ccc(F)cc1 [Compound 166, (S)-N-(4-(4-amino-1-methyl-7-(1-methyl-1H-indazol-5-yl)-1H-pyrazolo[4,3-c]pyridin-3-yl)-2-(1-(4-fluorophenyl)ethoxy)phenyl)-1,1-difluoromethanesulfonamide]	5.00 to 6.00
< 5.00	< 5.00	7.00 to 9.00	C[C@H](Oc1cc(-c2nn(C)c3c(-c4cnn(C5CCN(CC(F)(F)F)C(C)(C)C5)c4)cnc(N)c23)ccc1NS(=O)(=O)C(F)F)c1ccc(F)cc1 (stereo partly drawn) [Compound 167, N-(4-(4-amino-7-(1-(2,2-dimethyl-1-(2,2,2-trifluoroethyl)piperidin-4-yl)-1H-pyrazol-4-yl)-1-methyl-1H-pyrazolo[4,3-c]pyridin-3-yl)-2-((S)-1-(4-fluorophenyl)ethoxy)phenyl)-1,1-difluoromethanesulfonamide]	> 7.00
< 5.00	< 5.00	7.00 to 9.00	CC1CN(C)CC(C)C1n1cc(-c2cnc(N)c3c(-c4ccc(NS(=O)(=O)C(F)F)c(O[C@@H](C)c5ccc(F)cc5)c4)nn(C)c23)cn1 (stereo partly drawn) [Compound 172, N-(4-{4-amino-1-methyl-7-[1-(1,3,5-trimethylpiperidin-4-yl)-1H-pyrazol-4-yl]-1H-pyrazolo[4,3-c]pyridin-3-yl}-2-[(1S)-1-(4-fluorophenyl)ethoxy]phenyl)-1,1-difluoromethanesulfonamide]	> 7.00
